Measured values published in patent US20260364184A1, “COMPOUND BASED ON OXOISOINDOLINYL-SUBSTITUTED TETRAHYDROPYRIMIDINE-DIONE AND USE THEREOF” (GLUETACS THERAPEUTICS (SHANGHAI) CO., LTD., priority 2023, published 2026).

What was measured:
Assay type in all cases: cell-based
Conditions in all cases: hPBMC Cell; 24 hours
WEE1 = target: T1, WEE1 (Homo sapiens, UniProt P30291+Q96SW2); test: Western blot degradation of WEE1
T1 construct: expression of target proteins in cells; endogenous in cells
Experimental: (§1) Conventional Western blot assay was performed to evaluate the effects of the compounds of the present disclosure on the expression of target proteins in cells.
(§2) (1) Cell Seeding and Protein Harvesting: The selected cells were processed according to the cell seeding procedure and protein harvesting procedure in Table II-2.
(§3) (2) To the collected supernatant, 5×SDS sample loading buffer was added, followed by denaturation at 95 °C for 5 minutes. The denatured samples were then separated by SDS-PAGE electrophoresis on a polyacrylamide gel. Proteins were transferred to a nitrocellulose membrane (0.45 μm NC membrane), blocked with blocking buffer at room temperature for 1 hour, and subjected to antibody incubation and development procedures according to the antibody manufacturer's instructions (Cell Signaling Technology).
(§4) Half-Maximal Degradation Concentration value (the drug concentration required for degrading proteins by 50%, abbreviated as DC50) reads method: comparing the grayscale values of Western blot bands from drug-treated samples with those from blank DMSO-treated controls, and identifying the drug concentration range at which the grayscale value is half that of the DMSO-treated control bands.
(§5) DC50 values can be calculated using ImageJ software to measure grayscale values of Western blot bands from drug-treated samples. The concentration-response curve is fitted to estimate the drug concentration corresponding to half the grayscale value.
(§6) Target protein remaining (%) refers to the percentage of target protein remaining in cells after treatment with protein degrader compounds.
(§7) Calculation method for target protein remaining (%): Use ImageJ software to measure grayscale values of Western blot bands from drug (protein degrader)-treated samples. The grayscale value of drug-treated bands is divided by that of internal control protein bands, and the resulting quotient is normalized to obtain the relative percentage of remaining target protein after protein degrader treatment.
(§8) Target protein degradation rate (%)=1−target protein remaining (%).

IKZF1 = target: T2, IKZF1 (Homo sapiens, UniProt Q13422+Q96SW2); test: Western blot degradation of IKZF1
T2 construct: expression of target proteins in cells; endogenous in cells
Experimental: as §1, §2, §3, §4, §5, §6, §7, §8

IKZF2 = target: T3, IKZF2 (Homo sapiens, UniProt Q96SW2+Q9UKS7); test: Western blot degradation of IKZF2
T3 construct: expression of target proteins in cells; endogenous in cells
Experimental: as §1, §2, §3, §4, §5, §6, §7, §8

IKZF3 = target: T4, IKZF3 (Homo sapiens, UniProt Q96SW2+Q9UKT9); test: Western blot degradation of IKZF3
T4 construct: expression of target proteins in cells; endogenous in cells
Experimental: as §1, §2, §3, §4, §5, §6, §7, §8

CK1α = target: T5, CK1α (Homo sapiens, UniProt P48729+Q96SW2); test: Western blot degradation of CK1α
T5 construct: expression of target proteins in cells; endogenous in cells
Experimental: as §1, §2, §3, §4, §5, §6, §7, §8

GSPT1 = target: T6, GSPT1 (Homo sapiens, UniProt P15170+Q96SW2); test: Western blot degradation of GSPT1
T6 construct: expression of target proteins in cells; endogenous in cells
Experimental: as §1, §2, §3, §4, §5, §6, §7, §8

T3 sequence (Q9UKS7 whole entry): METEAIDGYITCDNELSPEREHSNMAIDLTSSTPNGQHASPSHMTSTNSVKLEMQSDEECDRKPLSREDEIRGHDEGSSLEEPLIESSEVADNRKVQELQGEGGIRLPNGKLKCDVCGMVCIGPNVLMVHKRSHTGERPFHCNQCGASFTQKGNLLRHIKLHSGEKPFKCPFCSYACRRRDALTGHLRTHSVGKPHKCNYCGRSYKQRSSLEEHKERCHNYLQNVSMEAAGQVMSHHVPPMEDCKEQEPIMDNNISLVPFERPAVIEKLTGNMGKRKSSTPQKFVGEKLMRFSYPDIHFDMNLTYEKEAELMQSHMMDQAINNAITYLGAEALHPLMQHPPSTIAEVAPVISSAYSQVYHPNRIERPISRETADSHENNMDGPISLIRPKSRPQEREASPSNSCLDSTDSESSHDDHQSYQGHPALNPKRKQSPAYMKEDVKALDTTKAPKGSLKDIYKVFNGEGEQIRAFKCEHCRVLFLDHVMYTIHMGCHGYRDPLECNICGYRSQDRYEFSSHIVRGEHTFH
T3 sequence (Q96SW2 whole entry): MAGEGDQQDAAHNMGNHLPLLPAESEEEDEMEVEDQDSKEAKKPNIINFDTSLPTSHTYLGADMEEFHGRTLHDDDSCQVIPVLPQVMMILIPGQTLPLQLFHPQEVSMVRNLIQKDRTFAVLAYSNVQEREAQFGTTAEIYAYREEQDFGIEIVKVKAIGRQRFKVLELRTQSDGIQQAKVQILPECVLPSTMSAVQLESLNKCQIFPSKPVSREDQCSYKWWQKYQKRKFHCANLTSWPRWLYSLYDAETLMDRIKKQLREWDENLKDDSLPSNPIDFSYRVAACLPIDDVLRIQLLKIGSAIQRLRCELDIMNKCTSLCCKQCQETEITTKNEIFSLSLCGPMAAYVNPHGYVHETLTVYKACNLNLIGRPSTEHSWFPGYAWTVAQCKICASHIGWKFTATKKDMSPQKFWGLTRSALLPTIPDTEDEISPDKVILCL
T3 sequence (Q16531 whole entry partner): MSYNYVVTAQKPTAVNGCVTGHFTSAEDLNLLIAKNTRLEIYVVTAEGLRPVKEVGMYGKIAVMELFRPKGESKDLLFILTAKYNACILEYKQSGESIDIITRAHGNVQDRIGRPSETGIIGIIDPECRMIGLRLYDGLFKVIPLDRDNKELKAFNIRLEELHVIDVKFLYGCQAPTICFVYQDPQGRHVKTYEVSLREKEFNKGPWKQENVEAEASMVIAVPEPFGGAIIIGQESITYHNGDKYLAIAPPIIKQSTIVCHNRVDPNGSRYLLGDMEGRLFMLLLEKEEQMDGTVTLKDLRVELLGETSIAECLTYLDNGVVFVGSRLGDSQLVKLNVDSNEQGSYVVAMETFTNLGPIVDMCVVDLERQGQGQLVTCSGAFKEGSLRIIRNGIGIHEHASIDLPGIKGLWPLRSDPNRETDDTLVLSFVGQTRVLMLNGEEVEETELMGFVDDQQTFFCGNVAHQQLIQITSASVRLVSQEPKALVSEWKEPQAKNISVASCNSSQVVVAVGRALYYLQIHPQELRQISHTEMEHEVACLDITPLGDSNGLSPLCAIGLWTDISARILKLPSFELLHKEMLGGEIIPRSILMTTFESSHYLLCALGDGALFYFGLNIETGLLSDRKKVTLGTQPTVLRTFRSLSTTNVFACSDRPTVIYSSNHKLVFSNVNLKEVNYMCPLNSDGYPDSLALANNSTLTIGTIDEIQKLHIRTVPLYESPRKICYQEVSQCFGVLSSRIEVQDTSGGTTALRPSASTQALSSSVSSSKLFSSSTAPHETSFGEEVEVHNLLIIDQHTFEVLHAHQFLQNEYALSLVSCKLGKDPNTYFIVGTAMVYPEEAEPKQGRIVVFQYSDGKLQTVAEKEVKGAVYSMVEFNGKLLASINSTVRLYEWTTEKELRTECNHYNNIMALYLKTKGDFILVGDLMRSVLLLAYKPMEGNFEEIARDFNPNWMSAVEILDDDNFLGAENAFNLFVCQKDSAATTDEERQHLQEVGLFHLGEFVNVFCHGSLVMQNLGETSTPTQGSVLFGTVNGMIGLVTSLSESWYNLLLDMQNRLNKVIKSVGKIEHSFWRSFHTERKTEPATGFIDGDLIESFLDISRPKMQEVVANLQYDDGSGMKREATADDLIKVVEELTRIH
T1 sequence (P30291 whole entry): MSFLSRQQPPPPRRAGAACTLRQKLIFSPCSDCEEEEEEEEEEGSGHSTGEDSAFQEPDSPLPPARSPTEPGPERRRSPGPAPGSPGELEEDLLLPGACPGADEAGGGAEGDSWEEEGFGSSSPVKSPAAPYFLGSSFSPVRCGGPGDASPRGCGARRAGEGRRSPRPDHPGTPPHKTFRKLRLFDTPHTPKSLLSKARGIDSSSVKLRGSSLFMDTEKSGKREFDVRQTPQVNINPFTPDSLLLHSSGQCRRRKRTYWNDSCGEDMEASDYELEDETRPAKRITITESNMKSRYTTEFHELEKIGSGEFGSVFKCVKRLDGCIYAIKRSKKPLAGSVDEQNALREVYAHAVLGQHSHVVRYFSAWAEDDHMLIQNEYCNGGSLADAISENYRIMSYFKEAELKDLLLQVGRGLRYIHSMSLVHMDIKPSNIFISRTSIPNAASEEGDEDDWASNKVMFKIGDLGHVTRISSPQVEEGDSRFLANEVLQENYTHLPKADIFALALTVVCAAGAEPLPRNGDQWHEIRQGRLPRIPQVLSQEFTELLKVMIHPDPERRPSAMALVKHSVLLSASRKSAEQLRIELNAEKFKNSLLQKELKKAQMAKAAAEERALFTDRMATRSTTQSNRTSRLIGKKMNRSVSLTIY
T1 sequence (Q96SW2 whole entry): as the sequence (Q96SW2 whole entry) above
T1 sequence (Q16531 whole entry partner): as the sequence (Q16531 whole entry partner) above
T5 sequence (P48729 whole entry): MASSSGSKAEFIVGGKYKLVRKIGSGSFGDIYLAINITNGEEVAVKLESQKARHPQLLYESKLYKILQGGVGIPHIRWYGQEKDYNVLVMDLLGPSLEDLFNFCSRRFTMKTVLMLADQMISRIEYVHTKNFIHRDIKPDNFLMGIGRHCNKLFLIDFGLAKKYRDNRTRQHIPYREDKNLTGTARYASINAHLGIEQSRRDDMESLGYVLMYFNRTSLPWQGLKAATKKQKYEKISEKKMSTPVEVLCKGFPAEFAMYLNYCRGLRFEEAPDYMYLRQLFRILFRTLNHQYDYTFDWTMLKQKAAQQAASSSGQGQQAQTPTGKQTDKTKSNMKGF
T5 sequence (Q96SW2 whole entry): as the sequence (Q96SW2 whole entry) above
T5 sequence (Q16531 whole entry partner): as the sequence (Q16531 whole entry partner) above
T2 sequence (Q13422 whole entry): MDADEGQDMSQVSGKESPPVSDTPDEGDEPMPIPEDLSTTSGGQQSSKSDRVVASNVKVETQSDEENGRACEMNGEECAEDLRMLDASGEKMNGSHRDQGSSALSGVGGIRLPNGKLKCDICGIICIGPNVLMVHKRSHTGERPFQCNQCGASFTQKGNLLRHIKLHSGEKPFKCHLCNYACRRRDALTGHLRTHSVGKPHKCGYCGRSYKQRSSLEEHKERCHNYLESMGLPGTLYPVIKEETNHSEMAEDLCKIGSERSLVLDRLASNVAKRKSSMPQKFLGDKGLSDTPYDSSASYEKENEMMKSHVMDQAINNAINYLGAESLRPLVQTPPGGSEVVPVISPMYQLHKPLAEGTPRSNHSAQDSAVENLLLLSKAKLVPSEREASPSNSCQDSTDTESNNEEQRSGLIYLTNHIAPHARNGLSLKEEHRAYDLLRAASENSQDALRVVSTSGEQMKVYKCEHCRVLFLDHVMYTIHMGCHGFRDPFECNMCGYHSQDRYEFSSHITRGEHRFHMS
T2 sequence (Q96SW2 whole entry): as the sequence (Q96SW2 whole entry) above
T2 sequence (Q16531 whole entry partner): as the sequence (Q16531 whole entry partner) above
T6 sequence (P15170 whole entry): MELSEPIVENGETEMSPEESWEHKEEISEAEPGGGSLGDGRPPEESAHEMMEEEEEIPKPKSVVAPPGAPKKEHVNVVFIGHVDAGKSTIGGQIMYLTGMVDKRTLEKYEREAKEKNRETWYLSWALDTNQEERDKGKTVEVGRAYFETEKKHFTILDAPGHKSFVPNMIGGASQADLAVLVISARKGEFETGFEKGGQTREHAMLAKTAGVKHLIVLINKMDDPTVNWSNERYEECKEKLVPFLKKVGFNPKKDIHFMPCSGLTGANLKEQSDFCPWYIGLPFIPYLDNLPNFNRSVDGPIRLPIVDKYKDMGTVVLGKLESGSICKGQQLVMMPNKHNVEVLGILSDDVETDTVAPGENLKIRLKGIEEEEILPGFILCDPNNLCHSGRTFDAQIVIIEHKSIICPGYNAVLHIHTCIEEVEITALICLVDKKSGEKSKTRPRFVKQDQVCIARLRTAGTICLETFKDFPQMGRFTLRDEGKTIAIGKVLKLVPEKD
T6 sequence (Q96SW2 whole entry): as the sequence (Q96SW2 whole entry) above
T6 sequence (Q16531 whole entry partner): as the sequence (Q16531 whole entry partner) above

Compound	Degradation of substrate protein WEE1 (substrate protein remaining %) (WEE1)	Degradation of substrate protein IKZF1 (substrate protein remaining %) (IKZF1)	Degradation of substrate protein IKZF2 (substrate protein remaining %) (IKZF2)	Degradation of substrate protein IKZF3 (substrate protein remaining %) (IKZF3)	Degradation of substrate protein CK1α (substrate protein remaining %) (CK1α)	Degradation of substrate protein GSPT1 (substrate protein remaining %) (GSPT1)
O=C1CCN(N2C(=O)c3ccc(N4C5CNCC4C5)cc3C2=O)C(=O)N1 [GT-05588, 5-(3,6-diazabicyclo[3.1.1]heptan-6-yl)-2-(2,4-dioxotetrahydropyrimidin-1(2H)-yl)isoindoline-1,3-dione]	B (80%<substrate protein remaining %≤100%)	B (80%<substrate protein remaining %≤100%)	B (80%<substrate protein remaining %≤100%)	A (0%≤substrate protein remaining %≤80%)	B (80%<substrate protein remaining %≤100%)	B (80%<substrate protein remaining %≤100%)
O=C1CCN(N2C(=O)c3ccc(N4CC5CCC(C4)N5)cc3C2=O)C(=O)N1 [GT-05589, 5-(3,8-diazabicyclo[3.2.1]octan-3-yl)-2-(2,4-dioxotetrahydropyrimidin-1(2H)-yl)isoindoline-1,3-dione]	B (80%<substrate protein remaining %≤100%)	B (80%<substrate protein remaining %≤100%)	B (80%<substrate protein remaining %≤100%)	A (0%≤substrate protein remaining %≤80%)	B (80%<substrate protein remaining %≤100%)	B (80%<substrate protein remaining %≤100%)
O=CC1CCN(c2cccc3c2C(=O)N(N2CCC(=O)NC2=O)C3=O)CC1 [GT-05590, 1-(2-(2,4-dioxotetrahydropyrimidin-1(2H)-yl)-1,3-dioxoisoindolin-4-yl)piperidine-4-carbaldehyde]	B (80%<substrate protein remaining %≤100%)	B (80%<substrate protein remaining %≤100%)	B (80%<substrate protein remaining %≤100%)	A (0%≤substrate protein remaining %≤80%)	B (80%<substrate protein remaining %≤100%)	B (80%<substrate protein remaining %≤100%)
O=C1CCN(N2C(=O)c3cccc(N4CCNCC4)c3C2=O)C(=O)N1 [GT-05591, 2-(2,4-dioxotetrahydropyrimidin-1(2H)-yl)-4-(piperazin-1-yl)isoindoline-1,3-dione]	B (80%<substrate protein remaining %≤100%)	B (80%<substrate protein remaining %≤100%)	B (80%<substrate protein remaining %≤100%)	A (0%≤substrate protein remaining %≤80%)	B (80%<substrate protein remaining %≤100%)	B (80%<substrate protein remaining %≤100%)
O=C1CCN(N2C(=O)c3ccc(N4CCNCC4)c(F)c3C2=O)C(=O)N1 [GT-05592, 2-(2,4-dioxotetrahydropyrimidin-1(2H)-yl)-4-fluoro-5-(piperazin-1-yl)isoindoline-1,3-dione]	B (80%<substrate protein remaining %≤100%)	B (80%<substrate protein remaining %≤100%)	B (80%<substrate protein remaining %≤100%)	A (0%≤substrate protein remaining %≤80%)	B (80%<substrate protein remaining %≤100%)	B (80%<substrate protein remaining %≤100%)
O=C1CCN(N2C(=O)c3cc(N4CCNCC4)cc(F)c3C2=O)C(=O)N1 [GT-05593, 2-(2,4-dioxotetrahydropyrimidin-1(2H)-yl)-4-fluoro-6-(piperazin-1-yl)isoindoline-1,3-dione]	B (80%<substrate protein remaining %≤100%)	B (80%<substrate protein remaining %≤100%)	A (0%≤substrate protein remaining %≤80%)	B (80%<substrate protein remaining %≤100%)	B (80%<substrate protein remaining %≤100%)	A (0%≤substrate protein remaining %≤80%)
O=C1CCN(N2C(=O)c3ccc(N4CCC(N5CCNCC5)CC4)cc3C2=O)C(=O)N1 [GT-05594, 2-(2,4-dioxotetrahydropyrimidin-1(2H)-yl)-5-(4-(piperazin-1-yl)piperidin-1-yl)isoindoline-1,3-dione]	B (80%<substrate protein remaining %≤100%)	B (80%<substrate protein remaining %≤100%)	A (0%≤substrate protein remaining %≤80%)	B (80%<substrate protein remaining %≤100%)	B (80%<substrate protein remaining %≤100%)	A (0%≤substrate protein remaining %≤80%)
O=CC1CCN(C2CCN(c3ccc4c(c3)C(=O)N(N3CCC(=O)NC3=O)C4=O)CC2)CC1 [GT-05595, 1′-(2-(2,4-dioxotetrahydropyrimidin-1(2H)-yl)-1,3-dioxoisoindolin-5-yl)-[1,4′-bipiperidine]-4-carbaldehyde]	B (80%<substrate protein remaining %≤100%)	B (80%<substrate protein remaining %≤100%)	A (0%≤substrate protein remaining %≤80%)	B (80%<substrate protein remaining %≤100%)	B (80%<substrate protein remaining %≤100%)	B (80%<substrate protein remaining %≤100%)
O=C1CCN(N2C(=O)c3ccc(CBr)cc3C2=O)C(=O)N1 [GT-06979, 5-(bromomethyl)-2-(2,4-dioxotetrahydropyrimidin-1(2H)-yl)isoindoline-1,3-dione]	A (0%≤substrate protein remaining %≤80%)	B (80%<substrate protein remaining %≤100%)	A (0%≤substrate protein remaining %≤80%)	B (80%<substrate protein remaining %≤100%)	B (80%<substrate protein remaining %≤100%)	B (80%<substrate protein remaining %≤100%)
NCc1ccc2c(c1)C(=O)N(N1CCC(=O)NC1=O)C2=O [GT-07968, 5-(aminomethyl)-2-(2,4-dioxotetrahydropyrimidin-1(2H)-yl)isoindoline-1,3-dione]	A (0%≤substrate protein remaining %≤80%)	A (0%≤substrate protein remaining %≤80%)	A (0%≤substrate protein remaining %≤80%)	A (0%≤substrate protein remaining %≤80%)	A (0%≤substrate protein remaining %≤80%)	B (80%<substrate protein remaining %≤100%)
